Consider two compounds from patent publication US20240175881A1, “SIMPLIFIED METHODS FOR MEASURING LIVER FUNCTION” (HepQuant, LLC, priority 2022, published 2024).

Assay [1] has as its system subjects with Child-Pugh A cirrhosis and a liver stiffness measurement of >15 kPa. As to conditions: HepQuant SHUNT test; cited from earlier work.
Assay [2] has as its system patients with well-compensated (Child-Pugh A) NASH cirrhosis. Put plainly: Risk ACE from simplified cholate tests (SHUNT V2.0, DuO) in open-label resmetirom arm of MAESTRO-NAFLD-1. The class given is in vivo, human. An excerpt:
MAESTRO-NAFLD-1 (NCT04197479) was a 52-week Phase 3 trial to evaluate the safety and tolerability of resmetirom, a thyroid hormone receptor-β agonist being studied for the treatment of NASH. (Harrison et al., Lancet 2019, 394:2012-24). MAESTRO-NAFLD-1 included an open-label active resmetirom treatment arm in patients with well-compensated (Child-Pugh A [CP-A]) NASH cirrhosis (FIG. 23).
Methods: Subjects (n=34) with compensated NASH cirrhosis underwent baseline testing and subsequent retesting at 28 and 48 weeks. Eligibility included at least 3 metabolic risk factors and NASH cirrhosis diagnosed by liver biopsy or accepted criteria
AUCs were calculated by a compartmental model (McRae et al., 2023 Translational Res. 252:53-63). For SHUNT V2.0: IV and oral data at 20 and 60 minutes were employed. For DuO: only oral data at 20 and 60 minutes were employed.
Risk ACE was calculated for each subject from the baseline and weeks 28 and 48 disease severity index (DSI). A Poisson model (Risk ACE) estimated the annual clinical event rate based on 220 subjects with 52 clinical events from the HALT-C Trial. The result is an event rate (clinical events per person-year). • Model A: Relationship with baseline DSI (denoted by dsi0):
Y=β0+β1dsi0 • Model D: Relationship with baseline DSI and change in DSI (denoted dsiΔ)
Difference from baseline is represented by the difference of Risk ACE Model A and Model D (Table 26).

`CCOc1c(C(=O)O)cnn1-c1cccc(-c2cccc(C)c2OCc2ccc3c(c2C)CCN(C2CCOCC2)C3)n1` [BI 685509]: the hepatic function entry in assay [1] is reported as “improves hepatic function”.

For the compound `CC(C)c1cc(Oc2c(Cl)cc(-n3nc(C#N)c(=O)[nH]c3=O)cc2Cl)n[nH]c1=O` [Resmetirom], the “subjects in whom Risk ACE decreased” value in assay [2] (DuO test, 28 weeks vs baseline) is given as 21 of 23; in assay [2] (DuO test, 48 weeks vs baseline), 19 of 23; in assay [2] (SHUNT V2.0 test, 28 weeks vs baseline) it was 20 of 23; in assay [2] (SHUNT V2.0 test, 48 weeks vs baseline), 19 of 23. The “Δ Risk ACE” value in assay [2] (DuO test, Baseline - Week 28 of resmetirom) is −0.0182 clinical events per person-year; in assay [2] (DuO test, Baseline - Week 28 of resmetirom, listed as resmetirom) it was “significant decrease”; in assay [2] (DuO test, Baseline - Week 48 of resmetirom) it was −0.0355 clinical events per person-year; in assay [2] (DuO test, Baseline - Week 48 of resmetirom, listed as resmetirom), −0.0355 clinical events per person-yea; in assay [2] (SHUNT V2.0 test, Baseline - Week 28 of resmetirom), −0.0174 clinical events per person-year; in assay [2] (SHUNT V2.0 test, Baseline - Week 28 of resmetirom, listed as resmetirom) it was −0.0170 clinical events per person-yea. Besides, the “Δ Risk ACE” value in assay [2] (SHUNT V2.0 test, Baseline - Week 48 of resmetirom) is on record as −0.0325 clinical events per person-year; in assay [2] (SHUNT V2.0 test, Baseline - Week 48 of resmetirom, listed as resmetirom), −0.0325 clinical events per person-yea. In assay [2] (simplified cholate tests, after 28 weeks of resmetirom), the “estimated clinical event rate” value is given as “reduction in estimated clinical event rate”.
